Tested on: ferrets
Assay: Emetine-induced retching tests on ferrets
Assay type: in vivo
Conditions: for antiemetic effect: test substance 0.3 and 3.0 mg/kg p.o. 60 min before emetine
Experimental: Emetine-Induced Retching Tests on Ferrets:
The determination of the antiemetic action follows the method described by Gardner et al. in Brit. J. Pharmacol., 116, 3158-3163, 1995.
Sixty minutes before administration of the test substance, the ferrets were accommodated in individual stainless steel cages (40×50×34 cm) having a grid floor. The animals were then treated with emetine (2 mg/kg p.o.) and observed immediately for a period of 2 hours with a view to the following points: • number of ferrets which show signs of retching and vomiting; • latency up to initial retching (hours, minutes, seconds); • latency up to initial vomiting (hours, minutes, seconds); • retching (how often); • vomiting (how often); • number of nauseas; • average duration of the vomiting periods (minutes, seconds); • serious side effects on behavior.
Retching is defined according to the invention as a rhythmical respiratory movement against closed vocal cords, while vomiting is defined according to the invention as a forced expulsion of the higher stomach and intestinal contents.
32 ferrets were investigated. The substance tested was administered in two doses, orally sixty minutes before emetine administration, and compared to a control group. Ondansetrone (16 mg/kg p.o.) was given under the same experimental conditions and served as a reference substance.
The 32 ferrets were employed repeatedly in order to investigate 4 test substances. The administration scheme for the three-week experiment looked as follows:
The amounts were analyzed and the student's test was used in the comparison of the treated groups with the control group.
The […] data were analyzed, Fisher's exact probability test being used for the comparison of the treated groups with the control group.

[1] = ferrets given emetine 2 mg/kg p.o., vs control group
[2] = 16 mg/kg p.o., ferrets, emetine 2 mg/kg p.o., 2 h observation

COCCOc1ccc(-c2c(C#N)c(N)nc(SCc3cccnc3)c2C#N)cc1 [Substance 2]
antiemetic effect [1]: no significant antiemetic effect

Cc1nccn1CC1CCc2c(c3ccccc3n2C)C1=O (centres unmarked) [ondansetrone, Ondansetrone, reference compound]
number of ferrets in which emesis was induced [2]: one of 16 | quantitative occurrence of retching and vomiting (induced by emetine) [2]: significantly reduced

N#Cc1c(NCCO)nc(SCc2ccccc2)c(C#N)c1-c1ccccc1 [Substance 1]
antiemetic effect [1]: no significant antiemetic effect

CC(=O)Nc1ccc(-c2c(C#N)c(N)nc(SCc3ccccn3)c2C#N)cc1 [Substance 3]
prevention of emetine-induced vomiting (ferrets given emetine 2 mg/kg p.o., test substance in two doses orally 60 min before emetine, vs control group): significantly prevented
